Assay [1] addresses T1, human Dopamine D2 receptor (Homo sapiens, UniProt P14416).
T1 construct: purchased BioSignal, Inc. (Montreal, Canada)
Nature of the assay: Binding affinity at the human dopamine D2 receptor. The note with it: Table 3d; * = >50000; read-out: hD2 Ki. The procedure, abridged:
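Membrane-based binding format. For D1 and D2, membranes came from cells expressing the human receptor; the α2A and D5 binding assays are described only as standard receptor-binding procedures.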

In assay [2] the target is T2, human α1D adrenergic receptor (Homo sapiens, UniProt P25100).
T2 construct: expressed in transfected cells
T2 sequence (P25100 1-572): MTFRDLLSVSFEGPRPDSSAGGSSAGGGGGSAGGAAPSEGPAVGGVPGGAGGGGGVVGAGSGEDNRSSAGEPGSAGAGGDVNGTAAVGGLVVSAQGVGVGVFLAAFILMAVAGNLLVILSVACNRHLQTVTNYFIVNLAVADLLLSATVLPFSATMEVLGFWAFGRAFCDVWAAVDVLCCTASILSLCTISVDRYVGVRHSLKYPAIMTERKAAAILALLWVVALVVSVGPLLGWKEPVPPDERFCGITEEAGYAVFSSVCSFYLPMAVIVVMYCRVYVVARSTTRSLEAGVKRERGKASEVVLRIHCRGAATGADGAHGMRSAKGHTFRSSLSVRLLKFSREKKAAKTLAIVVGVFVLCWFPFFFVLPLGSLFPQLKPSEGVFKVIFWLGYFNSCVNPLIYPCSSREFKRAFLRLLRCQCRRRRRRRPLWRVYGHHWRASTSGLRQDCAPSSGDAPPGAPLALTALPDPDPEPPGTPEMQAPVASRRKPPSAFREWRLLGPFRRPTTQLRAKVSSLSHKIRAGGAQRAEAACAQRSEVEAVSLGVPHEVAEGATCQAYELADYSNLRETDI
Nature of the assay: Binding affinity at the human α1D adrenergic receptor. The note with it: Table 3d; read-out: hα1D Ki. An excerpt:
(§1) Other receptors: Cell membranes expressing human dopamine D1, D2, D4 and rat D3 receptors were purchased through BioSignal, Inc. (Montreal, Canada). Binding assays using the histamine H1 receptor; dopamine receptors; and α1A, α1B, and α2 adrenergic receptors may be carried out according to the procedures described in U.S. Pat. No. 5,780,485, the disclosure of which is hereby incorporated by reference in its entirety into this application. Binding assays using the dopamine D5 receptor may be carried out according to the procedures described in U.S. Pat. No. 5,882,855, the disclosure of which is hereby incorporated by reference in its entirety into this application. Binding assays for the human α1D adrenergic receptor may be carried out according to the procedures described in U.S. Pat. No. 6,156,518, the disclosure of which is hereby incorporated by reference in its entirety into this application.

Assay [3] deals with T3, human dopamine D1 receptor (Homo sapiens, UniProt P21728).
T3 construct: purchased BioSignal, Inc. (Montreal, Canada)
Kind of assay: Binding affinity at the human dopamine D1 receptor. Conditions: Table 3d; read-out: hD1 Ki.
Text: as §1

In the next assay the target is rat D3 receptor (Rattus norvegicus, UniProt P19020). Nature of the assay: Binding affinity at the rat dopamine D3 receptor. Conditions: Table 3d; read-out: rD3 Ki.
Text: as §1

The target in assay [4] is T4, human dopamine D5 receptor (Homo sapiens, UniProt P21918).
T4 construct: expressed in transfected cells
Nature of the assay: Binding affinity at the human dopamine D5 receptor. Conditions: Table 3d; read-out: hD5 Ki.
Text: as §1

The next assay deals with T5, human α2A adrenoceptor (Homo sapiens, UniProt P08913).
T5 construct: expressed in transfected cells
T5 sequence (P08913 1-465): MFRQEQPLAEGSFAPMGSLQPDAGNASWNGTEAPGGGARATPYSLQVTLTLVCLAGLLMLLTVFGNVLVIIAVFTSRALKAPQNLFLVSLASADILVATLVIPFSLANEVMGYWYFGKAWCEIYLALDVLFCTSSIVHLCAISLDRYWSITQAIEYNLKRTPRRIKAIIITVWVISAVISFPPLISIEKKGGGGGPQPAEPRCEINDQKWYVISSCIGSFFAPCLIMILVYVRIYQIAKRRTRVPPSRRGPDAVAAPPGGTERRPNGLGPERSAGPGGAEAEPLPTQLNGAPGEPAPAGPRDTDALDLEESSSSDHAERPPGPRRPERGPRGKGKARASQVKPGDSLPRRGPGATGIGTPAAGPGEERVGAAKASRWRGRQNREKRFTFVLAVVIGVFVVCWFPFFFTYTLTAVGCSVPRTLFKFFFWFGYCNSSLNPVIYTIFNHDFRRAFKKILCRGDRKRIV
Kind of assay: Binding affinity at the human α2A adrenergic receptor.
Text: as §1

For a further assay, the target named is T6, human 5HT2A receptor (Homo sapiens, UniProt P28223).
T6 construct: expressed in transfected cells; host or cells: COS7 cells, transient, DEAE dextran, vector pCEXV3
Kind of assay: Binding affinity at the human 5HT2A receptor ([3H]ketanserin). Conditions: Table 3e; read-out: h5HT2A Ki. The method, then: Human 5HT2A Receptor: The coding sequence of the human 5HT2A receptor was obtained from a human brain cortex cDNA library, and cloned into the cloning site of pCEXV3 eukaryotic expression vector. This construct was transfected into COS7 cells by the DEAE dextran method (Cullen, 1987). Cells were harvested after 72 hours and lysed by sonication in 5 mM Tris HCl, 5 mM EDTA, pH 7.5. The cell lysates were subjected to centrifugation at 1000 rpm for 5 minutes at 4° C., and the supernatant was subjected to centrifugation at 30,000×g for 20 minutes at 4° C. The pellet was suspended in 50 mM Tris HCl buffer (pH 7.7 at room temperature) containing 10 mM MgSO4, 0.5 mM EDTA, and 0.1% ascorbate. […] Nonspecific binding was defined by the addition of 10 μM mianserin. The bound radioligand was separated by filtration through GF/B filters using a cell harvester.

The text below walks through data of patent publication US20040038855A1 (priority 1999, published 2004).

Where a name gives a salt, the structure may show the parent alone. Read-outs that look alike come from different tables or passages of the source. Some results are limits rather than exact numbers.

T4 sequence (P21918 whole entry): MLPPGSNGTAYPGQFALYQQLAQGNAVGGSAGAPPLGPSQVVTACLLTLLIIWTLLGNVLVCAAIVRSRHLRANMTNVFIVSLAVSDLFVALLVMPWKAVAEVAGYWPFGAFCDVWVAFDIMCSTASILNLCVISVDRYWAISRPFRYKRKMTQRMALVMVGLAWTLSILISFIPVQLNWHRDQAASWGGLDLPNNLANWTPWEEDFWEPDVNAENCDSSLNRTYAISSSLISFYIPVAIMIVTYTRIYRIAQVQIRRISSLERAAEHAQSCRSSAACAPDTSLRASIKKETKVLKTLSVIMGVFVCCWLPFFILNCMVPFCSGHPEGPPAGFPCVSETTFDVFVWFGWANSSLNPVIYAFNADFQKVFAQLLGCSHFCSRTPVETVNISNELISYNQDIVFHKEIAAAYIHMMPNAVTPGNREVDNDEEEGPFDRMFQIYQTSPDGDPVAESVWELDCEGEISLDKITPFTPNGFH
T3 sequence (P21728 whole entry): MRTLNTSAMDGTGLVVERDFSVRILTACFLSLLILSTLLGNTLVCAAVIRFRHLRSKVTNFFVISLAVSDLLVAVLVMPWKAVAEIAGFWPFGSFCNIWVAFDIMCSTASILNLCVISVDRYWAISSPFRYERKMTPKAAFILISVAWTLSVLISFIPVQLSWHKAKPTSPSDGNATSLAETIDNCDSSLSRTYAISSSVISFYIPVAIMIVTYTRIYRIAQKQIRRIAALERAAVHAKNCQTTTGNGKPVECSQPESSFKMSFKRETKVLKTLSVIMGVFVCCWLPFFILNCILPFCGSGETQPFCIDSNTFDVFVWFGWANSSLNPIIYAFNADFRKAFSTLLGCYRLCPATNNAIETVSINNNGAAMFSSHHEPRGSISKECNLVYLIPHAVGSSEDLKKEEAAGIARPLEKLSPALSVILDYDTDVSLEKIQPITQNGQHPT
T6 sequence (P28223 whole entry): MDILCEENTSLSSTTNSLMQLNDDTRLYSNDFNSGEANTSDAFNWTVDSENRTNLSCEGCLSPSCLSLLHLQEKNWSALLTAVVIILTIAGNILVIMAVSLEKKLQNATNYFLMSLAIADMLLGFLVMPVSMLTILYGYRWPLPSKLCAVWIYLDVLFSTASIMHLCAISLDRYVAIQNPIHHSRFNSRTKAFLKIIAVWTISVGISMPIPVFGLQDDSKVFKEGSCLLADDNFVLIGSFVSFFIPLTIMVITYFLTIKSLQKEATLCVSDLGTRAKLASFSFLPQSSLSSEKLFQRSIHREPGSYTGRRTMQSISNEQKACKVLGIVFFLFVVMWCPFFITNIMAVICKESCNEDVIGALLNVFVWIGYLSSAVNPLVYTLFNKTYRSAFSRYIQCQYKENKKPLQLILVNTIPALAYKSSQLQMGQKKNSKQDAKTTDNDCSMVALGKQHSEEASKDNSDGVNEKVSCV
Sequence of rat D3 receptor (P19020 whole entry): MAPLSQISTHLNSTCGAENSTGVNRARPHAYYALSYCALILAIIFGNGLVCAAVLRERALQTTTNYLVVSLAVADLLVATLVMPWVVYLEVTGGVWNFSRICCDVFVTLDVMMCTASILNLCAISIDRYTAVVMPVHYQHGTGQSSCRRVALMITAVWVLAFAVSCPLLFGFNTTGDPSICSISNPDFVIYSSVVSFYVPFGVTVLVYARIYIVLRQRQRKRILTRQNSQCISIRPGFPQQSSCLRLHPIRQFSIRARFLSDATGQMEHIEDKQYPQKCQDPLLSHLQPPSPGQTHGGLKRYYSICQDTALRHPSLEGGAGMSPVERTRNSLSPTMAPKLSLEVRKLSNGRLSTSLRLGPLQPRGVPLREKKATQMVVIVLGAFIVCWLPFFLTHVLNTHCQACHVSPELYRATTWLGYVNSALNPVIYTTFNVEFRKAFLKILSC
T1 sequence (P14416 whole entry): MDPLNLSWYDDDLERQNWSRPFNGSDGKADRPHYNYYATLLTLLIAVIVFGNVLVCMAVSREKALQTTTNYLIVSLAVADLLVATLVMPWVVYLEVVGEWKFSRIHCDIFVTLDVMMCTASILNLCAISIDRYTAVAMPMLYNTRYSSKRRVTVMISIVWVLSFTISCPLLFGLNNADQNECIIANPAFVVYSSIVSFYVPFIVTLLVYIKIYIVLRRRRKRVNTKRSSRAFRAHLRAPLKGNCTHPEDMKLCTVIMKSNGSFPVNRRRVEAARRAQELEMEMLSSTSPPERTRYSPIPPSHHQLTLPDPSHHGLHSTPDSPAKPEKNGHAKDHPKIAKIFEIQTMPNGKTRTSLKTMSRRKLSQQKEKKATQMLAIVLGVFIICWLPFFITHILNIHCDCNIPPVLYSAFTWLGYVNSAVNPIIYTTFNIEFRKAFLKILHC

For the compound `COCC1=C(C(=O)OC)[C@H](c2ccc(F)c(F)c2)N(C(=O)NCCCN2CCC(c3cccc(NC(C)=O)c3)CC2)C(=O)N1` [Example 10, (+)-1,2,3,6-TETRAHYDRO-1-{N-[4-(3,-ACETAMIDO)-PHENYLPIPERIDIN-1-YL]PROPYL}CARBOXAMIDO-4-METHOXYMETHYL-6-(3,4-DIFLUORO-PHENYL)-2-OXOPYRIMIDINE-5-CARBOXYLIC ACID METHYL ESTER], the Ki in assay [1] was over 50000 nM; in assay [2] it was 12300 nM; in assay [3], 1930 nM; on rat D3 receptor, 5890 nM; in assay [4], 773 nM.
In the case of “2-(3,4-DIFLUOROPHENYL)4,5-DIHYDROIMIDAZOLE-1-CARBOXYLIC ACID {3-[4-PHENYL-4-(4-BROMO-5-METHYLTHIOPNEN-2-YL)]-PROPYL}-AMIDE [Example 19]”, the Ki amounted to 517 nM in assay [2] and 285 nM at human α2A adrenoceptor (Table 3d, read-out: hα2A Ki).
On to `COC(=O)C1=C(C)NC(=O)N(C(=O)NCCCN2CCC3(CC2)OCc2ccccc23)C1c1ccc2nonc2c1` (single isomer, unassigned) [Example 18, HYDROCHLORIDE], for which the Ki in assay [1] was 624 nM; in assay [2], 612 nM; at human α2A adrenoceptor, 57 nM; in assay [3] it was 596 nM; at rat D3 receptor, 1220 nM; in assay [4], 2540 nM. The inhibition constant (Ki) on human 5HT2A receptor came out at 1570 nM.
`COC(=O)C1=C(C)NC(=O)N(C(=O)NCCCN2CCC3(CC2)OCc2ccccc23)C1c1ccc(F)c(F)c1` (stereo not drawn) [Example 20, 4-(3,4-DIFLUORPHENYL)-6-METHYL-2-OXO-3-{[3-(4-SPIRO[ISOBENZOFURAN-1(3H),4′-PIPERIDINE]PROPYL}-1,2,3,4-TETRAHYDROPYRIMIDINE-5-CARBOXYLIC ACID METHYL ESTER]: the Ki in assay [2] came to 207 nM; on human α2A adrenoceptor, 99 nM; on human 5HT2A receptor, 2820 nM.
For `COCC1=C(C(=O)OC)C(c2ccc(F)c(F)c2)N(C(=O)NCCCN2CCC(c3cccc(NC(C)=O)c3)CC2)C(=O)N1` (single isomer, unassigned; (-)) [Example 1, (−)-1,2,3,6-TETRAHYDRO-1-{N-[4-(3,-ACETAMIDO)-PHENYLPIPERIDIN-1-YL]PROPYL}CARBOXAMIDO-4-METHOXYMETHYL-6-(3,4-DIFLUORO-PHENYL)-2-OXOPYRIMIDINE-5-CARBOXYLIC ACID METHYL ESTER], the Ki in assay [2] is 1310 nM.

In general, Ki refers to a dissociation constant, usually derived from enzyme kinetics or from competition with a known ligand.
